Where a SMILES comes first, the peptide text is derived from it. [ ]: non-standard residue; d: D form. Aib = CC(C)(N)C(=O)O
Target: human GLP-1R (Homo sapiens, UniProt P43220)
Experiment: Peptide-receptor mediated cAMP accumulation (LANCE Ultra cAMP) in CHO-K1 cells transfected with human GLP-1R
Type: cell-based
Conditions: hGLP1 pEC50 (cAMP mean (n = 3): 11 point curve starting at 1 nM, Table 3)

Chain of human GLP-1R (P43220 24-463): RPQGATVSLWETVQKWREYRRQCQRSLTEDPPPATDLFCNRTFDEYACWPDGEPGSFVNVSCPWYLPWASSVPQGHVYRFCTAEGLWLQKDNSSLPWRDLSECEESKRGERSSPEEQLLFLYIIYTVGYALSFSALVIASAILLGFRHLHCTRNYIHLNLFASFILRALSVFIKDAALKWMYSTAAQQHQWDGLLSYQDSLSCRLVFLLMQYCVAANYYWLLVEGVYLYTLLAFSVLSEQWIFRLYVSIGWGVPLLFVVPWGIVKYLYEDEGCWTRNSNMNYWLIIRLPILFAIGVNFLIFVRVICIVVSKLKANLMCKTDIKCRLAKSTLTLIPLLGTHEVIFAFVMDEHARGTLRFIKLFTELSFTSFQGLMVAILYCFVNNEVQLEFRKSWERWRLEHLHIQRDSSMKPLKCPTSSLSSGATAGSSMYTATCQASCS

EC50 [nM] | Compound
> 1 | CC(C)C[C@H](NC(=O)[C@H](Cc1ccc(O)cc1)NC(=O)[C@H](CCCCN)NC(=O)[C@H](CO)NC(=O)[C@H](Cc1ccc(O)cc1)NC(=O)[C@H](CC(=O)O)NC(=O)[C@H](CO)NC(=O)[C@@H](NC(=O)[C@H](Cc1ccccc1)NC(=O)[C@@H](NC(=O)CNC(=O)[C@H](Cc1c[nH]cn1)NC(=O)[C@H](CO)NC(=O)[C@@H](N)Cc1ccc(O)cc1)[C@@H](C)O)[C@@H](C)O)C(=O)N[C@@H](CC(=O)O)C(=O)NC(C)(C)C(=O)N[C@@H](CCCCN)C(=O)N[C@@H](CCCNC(=N)N)C(=O)N[C@@H](C)C(=O)N[C@@H](CCC(N)=O)C(=O)N[C@@H](CCC(=O)O)C(=O)N[C@@H](Cc1ccccc1)C(=O)N[C@H](C(=O)NC(C)(C)C(=O)N[C@@H](Cc1c[nH]c2ccccc12)C(=O)N[C@@H](CC(C)C)C(=O)N[C@@H](CCC(=O)O)C(=O)N[C@@H](CC(=O)O)C(=O)N[C@@H](CCC(=O)O)C(=O)N1CCC[C@H]1C(=O)N[C@@H](CO)C(=O)N[C@@H](CO)C(=O)N[C@@H](CCCCN)C(=O)N[C@@H](CCC(N)=O)C(=O)N1CCC[C@H]1C(=O)N1CCC[C@H]1C(=O)N1CCC[C@H]1C(=O)N[C@@H](CO)C(=O)O)C(C)C [Compound A59] (H-YSHGTFTSDYSKYLD[Aib]KRAQEFV[Aib]WLEDEPSSKQPPPS-OH; N-terminus assumed)
> 1 | CC(C)C[C@H](NC(=O)[C@H](Cc1ccc(O)cc1)NC(=O)[C@H](CCCCN)NC(=O)[C@H](CO)NC(=O)[C@H](Cc1ccc(O)cc1)NC(=O)[C@H](CC(=O)O)NC(=O)[C@H](CO)NC(=O)[C@@H](NC(=O)[C@H](Cc1ccccc1)NC(=O)[C@@H](NC(=O)CNC(=O)[C@H](Cc1c[nH]cn1)NC(=O)[C@H](CO)NC(=O)[C@@H](N)Cc1ccc(O)cc1)[C@@H](C)O)[C@@H](C)O)C(=O)N[C@@H](CC(=O)O)C(=O)NC(C)(C)C(=O)N[C@@H](CCCCN)C(=O)N[C@@H](CCCNC(=N)N)C(=O)N[C@@H](C)C(=O)N[C@@H](CCC(N)=O)C(=O)N[C@@H](CCC(=O)O)C(=O)N[C@@H](Cc1ccccc1)C(=O)N[C@H](C(=O)NC(C)(C)C(=O)N[C@@H](Cc1c[nH]c2ccccc12)C(=O)N[C@@H](CC(C)C)C(=O)N[C@@H](CCC(=O)O)C(=O)N[C@@H](CC(=O)O)C(=O)N[C@@H](CCC(=O)O)C(=O)N1CCC[C@H]1C(=O)N[C@@H](CCCNC(=N)N)C(=O)N[C@@H](CC(N)=O)C(=O)N[C@@H](CCCCN)C(=O)N[C@@H](CC(N)=O)C(=O)N[C@@H](CC(N)=O)C(=O)N1CCC[C@H]1C(=O)N1CCC[C@H]1C(=O)N[C@@H](CO)C(=O)O)C(C)C [Compound A49] (H-YSHGTFTSDYSKYLD[Aib]KRAQEFV[Aib]WLEDEPRNKNNPPS-OH; N-terminus assumed)
> 1 | CC(C)C[C@H](NC(=O)[C@H](Cc1ccc(O)cc1)NC(=O)[C@H](CCCCN)NC(=O)[C@H](CO)NC(=O)[C@H](Cc1ccc(O)cc1)NC(=O)[C@H](CC(=O)O)NC(=O)[C@H](CO)NC(=O)[C@@H](NC(=O)[C@H](Cc1ccccc1)NC(=O)[C@@H](NC(=O)CNC(=O)[C@H](Cc1c[nH]cn1)NC(=O)[C@H](CO)NC(=O)[C@@H](N)Cc1ccc(O)cc1)[C@@H](C)O)[C@@H](C)O)C(=O)N[C@@H](CC(=O)O)C(=O)NC(C)(C)C(=O)N[C@@H](CCCCN)C(=O)N[C@@H](CCCNC(=N)N)C(=O)N[C@@H](C)C(=O)N[C@@H](CCC(N)=O)C(=O)N[C@@H](CCC(=O)O)C(=O)N[C@@H](Cc1ccccc1)C(=O)N[C@H](C(=O)NC(C)(C)C(=O)N[C@@H](Cc1c[nH]c2ccccc12)C(=O)N[C@@H](CC(C)C)C(=O)N[C@@H](CCC(=O)O)C(=O)N[C@@H](CC(=O)O)C(=O)N[C@@H](CCC(=O)O)C(=O)NCC(=O)N[C@@H](C)C(=O)N1CCC[C@H]1C(=O)N1CCC[C@H]1C(=O)N1CCC[C@H]1C(=O)N[C@@H](CO)C(=O)O)C(C)C [Compound A12] (H-YSHGTFTSDYSKYLD[Aib]KRAQEFV[Aib]WLEDEGAPPPS-OH; N-terminus assumed)

Compound | EC50 [nM]
CC(C)C[C@H](NC(=O)[C@H](Cc1c[nH]c2ccccc12)NC(=O)[C@H](CCCCN)NC(=O)[C@H](CO)NC(=O)[C@H](Cc1ccc(O)cc1)NC(=O)[C@H](CC(=O)O)NC(=O)[C@H](CO)NC(=O)[C@@H](NC(=O)[C@H](Cc1ccccc1)NC(=O)[C@@H](NC(=O)CNC(=O)[C@H](Cc1c[nH]cn1)NC(=O)[C@H](CO)NC(=O)[C@@H](N)Cc1ccc(O)cc1)[C@@H](C)O)[C@@H](C)O)C(=O)N[C@@H](CC(=O)O)C(=O)N[C@@H](CO)C(=O)N[C@@H](C)C(=O)N[C@@H](CCCNC(=N)N)C(=O)N[C@@H](C)C(=O)N[C@@H](CCC(N)=O)C(=O)N[C@@H](CCC(=O)O)C(=O)N[C@@H](Cc1ccccc1)C(=O)N[C@H](C(=O)N[C@@H](CCCCN)C(=O)N[C@@H](Cc1c[nH]c2ccccc12)C(=O)N[C@@H](CC(C)C)C(=O)N[C@@H](CCC(=O)O)C(=O)N[C@@H](CC(=O)O)C(=O)N[C@@H](CCC(=O)O)C(=O)N1CCC[C@H]1C(=O)N[C@@H](CO)C(=O)N[C@@H](CO)C(=O)NCC(=O)N[C@@H](C)C(=O)N1CCC[C@H]1C(=O)N1CCC[C@H]1C(=O)N1CCC[C@H]1C(=O)N[C@@H](CO)C(=O)O)C(C)C [Compound A38] (H-YSHGTFTSDYSKWLDSARAQEFVKWLEDEPSSGAPPPS-OH; N-terminus assumed) | > 1
CC(C)C[C@H](NC(=O)[C@H](Cc1ccc(O)cc1)NC(=O)[C@H](CCCCN)NC(=O)[C@H](CO)NC(=O)[C@H](Cc1ccc(O)cc1)NC(=O)[C@H](CC(=O)O)NC(=O)[C@H](CO)NC(=O)[C@@H](NC(=O)[C@H](Cc1ccccc1)NC(=O)[C@@H](NC(=O)CNC(=O)[C@H](Cc1c[nH]cn1)NC(=O)[C@H](CO)NC(=O)[C@@H](N)Cc1ccc(O)cc1)[C@@H](C)O)[C@@H](C)O)C(=O)N[C@@H](CC(=O)O)C(=O)N[C@@H](CO)C(=O)N[C@@H](C)C(=O)N[C@@H](CCCNC(=N)N)C(=O)N[C@@H](C)C(=O)N[C@@H](CCC(N)=O)C(=O)N[C@@H](CCC(=O)O)C(=O)N[C@@H](Cc1ccccc1)C(=O)N[C@H](C(=O)N[C@@H](CCCCN)C(=O)N[C@@H](Cc1c[nH]c2ccccc12)C(=O)N[C@@H](CC(C)C)C(=O)N[C@@H](CCC(=O)O)C(=O)N[C@@H](CC(=O)O)C(=O)N[C@@H](CCC(=O)O)C(=O)N1CCC[C@H]1C(=O)N[C@@H](CO)C(=O)N[C@@H](CO)C(=O)NCC(=O)N[C@@H](C)C(=O)N1CCC[C@H]1C(=O)N1CCC[C@H]1C(=O)N1CCC[C@H]1C(=O)N[C@@H](CO)C(=O)O)C(C)C [Compound A37] (H-YSHGTFTSDYSKYLDSARAQEFVKWLEDEPSSGAPPPS-OH; N-terminus assumed) | > 1

From patent US20240239861A1, “GLUCAGON-RECEPTOR SELECTIVE POLYPEPTIDES AND METHODS OF USE THEREOF” (i2O Therapeutics, Inc., priority 2016, published 2024)
